For test [1], the system named is colitis induced by acetic acid. The experiment in a line: model of colitis induced by acetic acid in rats. It is filed as in vivo, rat. To be noted: average ± SEM. Here is the method:
To test in vivo the efficacy of the composition of the invention, said composition was formulated in capsules and was assessed in terms of its ability to protect the susceptibility of the intestinal mucosa to irritating stimuli. Based on the presumed mechanism of the product to act on the inflammatory component of IBS (supported only recently by the literature) by means of a local, indirect protective and anti-inflammatory action also stemming from mucoadhesion, an experimental model of inflammatory colitis, not specific for IBS, was selected.
The study was carried out on a model of colitis induced by acetic acid, as described by McPherson B R, Pfeiffer C J (1978) Experimental Production of Diffuse Colitis in Rats. Digestion;17:135-150; Mousavizadeh K, Rahimian R, Fakhfouri G, Aslani F S, Ghafourifar P. (2009) Anti-inflammatory effects of 5-HT receptor antagonist, tropisetron on experimental colitis in rats. Eur J Clin Invest.;39(5):375-83; Noronha-Blob L, Lowe V C, Muhlahauser R O, Burch R M. (1993) NPC 15669, an inhibitor of neutrophil recruitment, is efficacious in acetic acid-induced colitis in rats. Gastroenterology, 104:1021-9.
Each group was formed by 10 rats in accordance with the following schema • 1. Rats without colitis, treated with vehicle 10 ml/kg, (p.o.); • 2. Rats with colitis, treated with vehicle 10 ml/kg, (p.o.); • 3. Rats with colitis, treated with the composition of the invention, (p.o.); • 4. Rats with colitis, treated with dexamethasone, (p.o) as reference. Macroscopic and microscopic parameters were measured.
In particular, the macroscopic damage to the colon, the colon index (mg of colon/grams of rat) and the activity of myeloperoxidase, an enzyme contained in the intracellular azurophilic granules of the polymorphonuclear leukocytes (PMNs), which can therefore be used as an indicator of the accumulation of the migrated neutrophils in the tissues during an inflammatory process, are shown.
To verify the effectiveness of the use of the incense ingredient in the formulations, the same experiment of inflammatory colitis induced by acetic acid was carried out with a formulation devoid of incense (ABO-INT-10-2), which corresponds to the formulation Abo-INT 10 (general formulations on page 16), devoid of incense.

For test [2], the system named is ileum. Kind of test: protective effect on intestinal mucosa in Ussing chamber, ileum. The test is classed as in vivo, rat. The settings on record: isolated (stress) rats, composition 500 mg/kg, dexamethasone 1 mg/kg intragastrically, average ±SD. The protocol:
(§1) The experiment was conducted in order to verify the effects of the tested substances on the artificially damaged intestinal mucosa ex vivo (for example hydrochloric acid).
(§2) […] male Sprague Dawley rats weighing approximately 200-250 g were used for the test.
(§3) 4 groups of 8 rats A, B, C, D were formed, respectively containing untreated rats, rats treated with 1.0 ml saline solution intragastrically, rats treated with 1.0 ml (500 mg/kg of body weight) of composition of the invention intragastrically, and rats treated with 1.0 ml of dexamethasone (1 mg/kg of body weight) intragastrically.
(§4) The animals in groups A, B, C and D were deprived of food for 18 hours.
Four rats per group were then anaesthetised 50 minutes after the above-indicated administration by means of intraperitoneal injection and were kept in a heated atmosphere.
A sample of the ileum was then dissected from these rats and mounted between the two half-chambers of the Ussing chamber and damage was induced using hydrochloride (pH 8.0; pH 6.5). […]
(§5) The ddp in mV through the mucosal membrane was measured directly as well as the short-circuit current, and these were monitored for 15 minutes whilst the transmembrane resistance was calculated in ohm x cm^2 using Ohm's law. […]
(§6) The system was then stabilised for 10 minutes and the same parameters as indicated above were then measured for 15 minutes. […]

The test system of test [3] is duodenum. Kind of test: protective effect on intestinal mucosa in Ussing chamber, duodenum. The test is classed as in vivo, rat. To be noted: isolated (stress) rats, composition 500 mg/kg, dexamethasone 1 mg/kg intragastrically, average ±SD. Here is the method: as §1, §2, §3, §4
Four rats per group were anaesthetised 30 minutes after the above-indicated administration by means of intraperitoneal injection and were kept in a heated atmosphere.
A sample of the duodenum was then dissected from these rats and mounted between the two half-chambers of the Ussing chamber and damage was induced using hydrochloride (pH 8.0; pH 5.5). […]
as §5, §6

In test [4] the test system is CaCo-2. The experiment in a line: antioxidant activity test (DCFH-DA, oxidative stress by oxygenated water). The settings on record: 0.15 mg/ml. It is filed as cell-based, human. Here is the method: In order to verify the antioxidant power of the composition of the invention in a biological system similar to the intestinal epithelium (CaCo-2), the following tests were carried out: Evaluation of the antioxidant activity of the sample on human cells subject to chemical, progressive oxidative stress. The assessment of the antioxidant action is acquired from the quantification of the formation of free radicals in cells exposed to the sample and to oxidative stress. The antioxidant activity of the sample in analyses was evaluated by comparison with that of a safe hydrosoluble antioxidant, such as vitamin C. The protocol is based on the use of a fluorescent probe called 2′,7′-dichlorofluorescein diacetate (DCFH-DA), a non-fluorescent stable molecule that enters the cells, bonds to the membrane macromolecules, where it is hydrolysed from cytoplasmic esterases to give dichlorofluorescein (DCFH), a molecule that again is non-fluorescent. DCFH, in the presence of free radicals, is oxidised, forming a highly fluorescent molecule: DCF. The oxidative stress is induced via oxygenated water. The radicals produced constitutively from the cells with the addition of the sample, but without the addition of the oxidising agent, were also monitored as a negative control (absence of oxidant activity of the composition of the invention).

The mark [5] stands for this setting: Table 1, rats with 4% acetic acid colitis, ABO/INT-10 1 g/kg, dexamethasone 1 mg/kg p.o.
Where [6] appears, read: Table 3, experiment with formulation devoid of incense, ABO/INT-10-2 1 g/kg, dexamethasone 1 mg/kg.
The mark [7] stands for this setting: Table 4, experiment with formulation devoid of incense, ABO/INT-10-2 1 g/kg, dexamethasone 1 mg/kg.

SMILES strings stand for the structures.

Take `C[C@@H]1C[C@H]2[C@@H]3CCC4=CC(=O)C=C[C@]4(C)[C@@]3(F)[C@@H](O)C[C@]2(C)[C@@]1(O)C(=O)CO` [Dexamethasone, dexamethasone]: in test [1] (setting [5]), the Faecal excretion number is 40.40 ± 8.035 and the “Faecal excretion weight” value is listed as 9.440 ± 1.790 g. The “Body weight (g) Final” value in test [1] (Table 1, rats with 4% acetic acid colitis, final, ABO/INT-10 1 g/kg, dexamethasone 1 mg/kg p.o.) is recorded as 214.3 ± 4.177 g. Further, the Macroscopic damage in test [1] (Table 2, colon, rats with 4% acetic acid colitis, composition 1 g/kg, dexamethasone 1 mg/kg p.o.) is recorded as 4.417 ± 1.052. The “Colon index” value in test [1] (Table 2, mg of colon/grams of rat, composition 1 g/kg, dexamethasone 1 mg/kg p.o.) was found to be 6.041 ± 0.341 mg/g. Also, in test [1] (Table 2, myeloperoxidase activity, after 24 hours, composition 1 g/kg, dexamethasone 1 mg/kg p.o.), the “MPO (U/mg tissue)” value is 15.387 ± 6.136 U/mg tissue. Besides, in test [1] (setting [6]), the Defecations number is on record as 42.10 ± 9.011, the “Defecations weight” value was 9.44 ± 1.79 g and the “Weight variation (g)” value came out at 2.167 ± 1.493°°** g. In test [1] (setting [7]), the “Colon index (mg/g)” value is given as 6.041 ± 0.341°** mg/g, the “MPO (U/mg tissue)” value is given as 16.423 ± 5.9780°* U/mg tissue and the Macroscopic damage amounted to 4.417 ± 1.052°°**. Further, the “average value of resistance of the ileum after induction of damage” value in test [2] (Krebs buffer at pH 6.5) came out at 39.7±8.1 ohm×cm^2. In test [2] (physiological pH Krebs buffer, 50 minutes), the “average value of resistance of the ileum” value is reported as 50.6±13.4 ohm×cm^2. Also, in test [3] (Krebs buffer at pH 5.5), the “average value of resistance of the duodenum after induction of damage” value came out at 48.0±12.7 ohm×cm^2. In test [3] (physiological pH Krebs buffer, 30 minutes), the “average value of resistance of the duodenum” value came out at 50.4±13.9 ohm×cm^2.
For `O=C1O[C@H]([C@@H](O)CO)C(O)=C1O` [vitamin C], the “% reduction of free radicals” value in test [4] (30 min) is 38%; in test [4] (60 min) it was 44.8%; in test [4] (90 min), 48%; in test [4] (120 min), 47%.

These data come from patent US11213559B2, “Formulation for treatment of irritable bowel disease” (ABOCA S.P.A. SOCIETA′ AGRICOLA, priority 2012, dated 2022).
